Experimental findings from patent US8609692B2, “TRPV1 antagonists” (AbbVie Inc., priority 2008, dated 2013) are described below.

What is called IC50 is the point on the concentration scale where inhibition reaches its midpoint. Higher therefore signals weaker potency in that assay.

Data set [1] is described as follows: Rat telemetry protocol (core body temperature). In kind it is in vivo. To be noted: core body temperature of rats at one hour post dosing (100 μmol/kg, p.o.), relative to vehicle. Here is the method:
Male, Sprague Dawley rats, 225-250 grams were anesthetized with Sevoflurane (Abbott Laboratories). Rats were placed on a heating pad and covered with a sterile surgical drape. A ventral midline abdominal incision was made and sterile cotton tip applicators were used to gently move internal tissue and expose the abdominal aorta for implantation of the telemetry catheter (Data Sciences International; TL11M2-050-PXT). Blood flow was temporarily stopped to the lower extremities (5-7 min) with Diffenbach clamps to allow the insertion of the telemetry catheter into the abdominal aorta. Once inserted, a sterile cellulose patch was placed over the catheter/aorta and secured using a small amount of tissue adhesive (Vetbond, 3M). Once catheter placement was complete, the clamps were removed and blood flow was restored to the lower extremities. The transmitter was placed in the intraperitoneal cavity. The transmitter suture rib was sewn into the abdominal sutures to secure it in place. The skin was closed using sterile wound clips and the animal removed from Sevoflurane. Buprenex ([…] s.c.; Phoenix) was administered for post-operative analgesia. Animals were maintained on a heating pad until ambulatory, and then individually housed with food and water ad lib. Surgical staples were removed after 7-10 days post-implantation. Rats were allowed a 2-week post-surgical recovery period before treatment with test compound. Oral dosing (p.o.) was at time zero, with rats receiving a single dose of vehicle (10% EtOH, 20% Tween-80, 70% PEG-400) or a 100 μmol/kg dose of compound dissolved in vehicle. Temperature measurements were recorded every 15 minutes for the duration of the study (24 hours).
The term “core body temperature” as used herein, means the temperature measured in the intraperitoneal cavity.

Data set [2] deals with T1, human TRPV1 receptor (hTRPV1) (Homo sapiens, UniProt Q8NER1).
T1 construct: expressed in transfected cells
T1 sequence (Q8NER1 whole entry): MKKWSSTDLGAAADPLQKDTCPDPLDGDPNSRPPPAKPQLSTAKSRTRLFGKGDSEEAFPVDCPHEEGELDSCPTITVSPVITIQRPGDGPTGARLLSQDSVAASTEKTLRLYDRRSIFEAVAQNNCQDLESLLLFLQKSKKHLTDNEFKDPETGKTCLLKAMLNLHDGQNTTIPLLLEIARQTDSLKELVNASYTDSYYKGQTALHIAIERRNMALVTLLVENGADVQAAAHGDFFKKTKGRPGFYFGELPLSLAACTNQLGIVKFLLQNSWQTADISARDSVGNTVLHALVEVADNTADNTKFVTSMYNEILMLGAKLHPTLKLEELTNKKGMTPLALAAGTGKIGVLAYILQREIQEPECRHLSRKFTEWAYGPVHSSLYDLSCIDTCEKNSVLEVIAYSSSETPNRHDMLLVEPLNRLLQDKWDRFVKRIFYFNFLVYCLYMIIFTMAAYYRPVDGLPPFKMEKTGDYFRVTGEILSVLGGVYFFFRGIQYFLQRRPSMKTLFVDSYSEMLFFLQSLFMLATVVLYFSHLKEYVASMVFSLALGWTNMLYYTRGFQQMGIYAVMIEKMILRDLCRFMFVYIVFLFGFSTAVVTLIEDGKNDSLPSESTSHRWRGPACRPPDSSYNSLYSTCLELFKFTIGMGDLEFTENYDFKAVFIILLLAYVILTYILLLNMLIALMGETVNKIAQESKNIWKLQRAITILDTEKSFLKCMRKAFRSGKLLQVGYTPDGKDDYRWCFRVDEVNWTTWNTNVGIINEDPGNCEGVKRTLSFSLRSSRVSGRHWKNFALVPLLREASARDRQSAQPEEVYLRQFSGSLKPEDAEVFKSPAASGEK
The data set is described as follows: Capsaicin activation assay (Ca2+ influx, FLIPR). In kind it is cell-based. The note with it: 0.05 μM capsaicin, 1321N1 cells expressing hTRPV1. Here is the method: Dulbecco's modified Eagle medium (D-MEM) (with 4.5 mg/mL glucose) and fetal bovine serum were obtained from Hyclone Laboratories, Inc. (Logan, Utah). Dulbecco's phosphate-buffered saline (D-PBS) (with 1 mg/mL glucose and 3.6 mg/l Na pyruvate, without phenol red), L-glutamine, hygromycin B, and Lipofectamine® were obtained from Life Technologies (Grand Island, N.Y.). G418 sulfate was obtained from Calbiochem-Novabiochem Corp. (San Diego, Calif.). Capsaicin (8-methyl-N-vanillyl-6-nonenamide) was obtained from Sigma-Aldrich, Co. (St. Louis, Mo.). Fluo-4 AM (N-[4-[6-[(acetyloxy)methoxy]-2,7-difluoro-3-oxo-3H-xanthen-9-yl]-2-[2-[2-[bis[2-[(acetyloxy)methoxy]-2-oxyethyl]amino]-5-methyl-phenoxy]ethoxy]phenyl]-N-[2-[(acetyloxy)methoxy]-2-oxyethyl]-glycine, (acetyloxy)methyl ester) was purchased from Molecular Probes (Eugene, Oreg.).
The cDNAs for the human TRPV1 receptor (hTRPV1) were isolated by reverse transcriptase-polymerase chain reaction (RT-PCR) from human small intestine poly A+RNA supplied by Clontech (Palo Alto, Calif.) using primers designed surrounding the initiation and termination codons identical to the published sequences (Hayes et al. Pain 2000, 88, 205-215). The resulting cDNA PCR products were subcloned into pCIneo mammalian expression vector (Promega) and fully sequenced using fluorescent dye-terminator reagents (Prism, Perkin-Elmer Applied Biosystems Division) and a Perkin-Elmer Applied Biosystems Model 373 DNA sequencer or Model 310 genetic analyzer. Expression plasmids encoding the hTRPV1 cDNA were transfected individually into 1321N1 human astrocytoma cells using Lipofectamine®. Forty-eight hours after transfection, the neomycin-resistant cells were selected with growth medium containing 800 μg/mL Geneticin (Gibco BRL). Surviving individual colonies were isolated and screened for TRPV1 receptor activity. Cells expressing recombinant homomeric TRPV1 receptors were maintained at 37° C. in D-MEM containing 4 mM L-glutamine, 300 μg/mL G418 (Cal-biochem) and 10% fetal bovine serum under a humidified 5% CO2 atmosphere.
The functional activity of compounds at the TRPV1 receptor was determined with a Ca^2+ influx assay and measurement of intracellular Ca^2+ levels ([Ca^2+]i). All compounds were tested over an 11-point half-log concentration range. Compound solutions were prepared in D-PBS (4× final concentration), and diluted serially across 96-well v-bottom tissue culture plates using a Biomek 2000 robotic automation workstation (Beckman-Coulter, Inc., Fullerton, Calif.). A 0.2 μM solution of the TRPV1 agonist capsaicin was also prepared in D-PBS. The fluorescent Ca^2+ chelating dye Fluo-4 AM was used as an indicator of the relative levels of [Ca^2+]i in a 96-well format using a Fluorescence Imaging Plate Reader (FLIPR) (Molecular Devices, Sunnyvale, Calif.). Cells were grown to confluency in 96-well black-walled tissue culture plates. Then, prior to the assay, the cells were loaded with 100 μL per well of Fluo-4 AM (2 μM, in D-PBS) for 1-2 hours at 23° C. Washing of the cells was performed to remove extracellular Fluo-4 AM (2×1 mL D-PBS per well), and afterward, the cells were placed in the reading chamber of the FLIPR instrument. 50 μL of the compound solutions were added to the cells at the 10 second time mark of the experimental run. Then, after a 3-minute time delay, 50 μL of the capsaicin solution was added at the, 190 second time mark (0.05 μM final concentration)(final volume=200 μL) to challenge the TRPV1 receptor. Time length of the experimental run was 240 seconds. Fluorescence readings were made at 1 to 5 second intervals over the course of the experimental run. The peak increase in relative fluorescence units (minus baseline) was calculated from the 190 second time mark to the end of the experimental run, and expressed as a percentage of the 0.05 μM capsaicin (control) response. […]

With `CCCC1(CCC)C[C@@H](NC(=O)Nc2cccc3c2C[C@H](O)CC3)c2cc(F)ccc2O1` [Example 72, N-[(4R)-6-fluoro-2,2-dipropyl-3,4-dihydro-2H-chromen-4-yl]-N′-[(7R)-7-hydroxy-5,6,7,8-tetrahydronaphthalen-1-yl]urea], the “Δ Temp” value in data set [1] came out at 0.7 °C. This molecule also registered an IC50 in data set [2] of 7 nM. Take `Cn1ncc2c(NC(=O)N[C@@H]3CCOc4c(OC(F)(F)F)cccc43)cccc21` [Example 79, N-(1-methyl-1H-indazol-4-yl)-N′-[(4R)-8-(trifluoromethoxy)-3,4-dihydro-2H-chromen-4-yl]urea]: in data set [1], the “Δ Temp” value was 1.5 °C. In addition, it took 4 nM to reach half-maximal inhibition in data set [2] (IC50). In data set [2], “N-[(2R,4R)-2-(fluoromethyl)-2-methyl-7-(trifluoromethyl)-3,4-dihydro-2H-chromen-4-yl]-N-(3-methylisoquinolin-5-yl)urea [Example 127]” gave an IC50 of 25 nM. Turning to `CC1(C)C[C@@H](NC(=O)Nc2cccc3c2C[C@@H](O)CC3)c2cc(F)ccc2O1` [Example 3, N-[(4R)-6-fluoro-2,2-dimethyl-3,4-dihydro-2H-chromen-4-yl]-N′-[(7S)-7-hydroxy-5,6,7,8-tetrahydronaphthalen-1-yl]urea], the “Δ Temp” value in data set [1] was 0.6 °C. The IC50 in data set [2] was 32 nM. `CCC1(CC)C[C@@H](NC(=O)Nc2cccc3ccncc23)c2ccc(F)cc2O1` [Example 82, N-[(4R)-2,2-diethyl-7-fluoro-3,4-dihydro-2H-chromen-4-yl]-N′-isoquinolin-8-ylurea]: the “Δ Temp” value in data set [1] was 1.5 °C. In data set [2], this molecule returned an IC50 of 18 nM.

For the molecule `CC1(C)C[C@@H](NC(=O)Nc2cccc3c2C[C@H](O)CC3)c2ccc(OC(F)(F)F)cc2O1` [Example 115, N-[(4R)-2,2-dimethyl-7-(trifluoromethoxy)-3,4-dihydro-2H-chromen-4-yl]-N′-[(7R)-7-hydroxy-5,6,7,8-tetrahydronaphthalen-1-yl]urea], the “Δ Temp” value in data set [1] worked out at 1.2 °C. The same molecule had an IC50 in data set [2] of 23 nM. On the same counts, the results for `CC1(C)C[C@@H](NC(=O)Nc2cccc3c2C[C@@H](O)CC3)c2ccc(Cl)cc2O1` [Example 103, N-[(4R)-7-chloro-2,2-dimethyl-3,4-dihydro-2H-chromen-4-yl]-N′-[(7S)-7-hydroxy-5,6,7,8-tetrahydronaphthalen-1-yl]urea] are 1.3 °C and 21 nM. On the same counts, the results for `Cn1ncc2c(NC(=O)N[C@@H]3CC(C)(C)Oc4cc(C(F)(F)F)ccc43)cccc21` [Example 33, N-[(4R)-2,2-dimethyl-7-(trifluoromethyl)-3,4-dihydro-2H-chromen-4-yl]-N′-(1-methyl-1H-indazol-4-yl)urea] are 1.4 °C and 14 nM. On the same counts, the results for `CCC1(CC)C[C@@H](NC(=O)Nc2cccc3c2cnn3C)c2cccc(C(F)(F)F)c2O1` [Example 77, N-[(4R)-2,2-diethyl-8-(trifluoromethyl)-3,4-dihydro-2H-chromen-4-yl]-N′-(1-methyl-1H-indazol-4-yl)urea] are 1.0 °C and 37 nM. On to `Cn1ncc2c(NC(=O)N[C@@H]3CC(C)(C)Oc4cc(OC(F)(F)F)ccc43)cccc21` [Example 39, N-[(4R)-2,2-dimethyl-7-(trifluoromethoxy)-3,4-dihydro-2H-chromen-4-yl]-N′-(1-methyl-1H-indazol-4-yl)urea], for which the “Δ Temp” value in data set [1] worked out at 0.7 °C. This molecule registered an IC50 in data set [2] of 25 nM.

On to `Cn1ncc2c(NC(=O)N[C@@H]3CCOc4c3cccc4C(F)(F)F)cccc21` [Example 59, N-(1-methyl-1H-indazol-4-yl)-N′-[(4R)-8-(trifluoromethyl)-3,4-dihydro-2H-chromen-4-yl]urea], for which the “Δ Temp” value in data set [1] turned out to be 0.5 °C. The molecule further gave an IC50 in data set [2] of 16 nM. For the molecule “N-[(4R)-2,2-diethyl-8-fluoro-3,4-dihydro-2H-chromen-4-yl]-N-isoquinolin-8-ylurea [Example 83]”, the IC50 in data set [2] turned out to be 21 nM.
